Our source for the IC50 values is EP4043466B1, “PRC2 INHIBITORS” (Mirati Therapeutics, Inc., priority 2018, dated 2019).

For assay [1], the system named is PRC2-mediated histone H3 methylation. The experiment in a line: Tri-Methyl Histone H3 (Lys 27) Sandwich ELISA in Pfeiffer cells: inhibition of PRC2-mediated histone H3 methylation. In kind it is cell-based, human. To be noted: Homo sapiens; Inhibition of EZH2-mediated histone H3 trimethylation; Pfeiffer cells (EZH2 A677G), 96 hours incubation. An excerpt: The Pfeiffer cell line was established from a […] from a patient having metastatic diffuse large B-cell lymphoma (DLBCL). This cell line expresses a mutant form of the EZH2 enzyme (A677G) that results in enhanced EZH2 activity leading to increased methylation of histone H3 Lys27. Increased trimethylation of histone H3 Lys27 is believed to be implicated in tumorgenesis and poor clinical prognosis in lymphomas (McCabe et al., (2012) Nature 492:108-112).
Inhibition of PRC2-mediated histone H3 methylation by compounds of Formula (I) was measured by ELISA using a Tri-Methyl Histone H3 (Lys 27) Sandwich ELISA Kit (Cell Signaling Tech #7866C) in accordance with the manufacturer's instructions. Briefly, Pfeiffer cells were cultured in RPMI medium supplemented with 10% fetal bovine serum and 1% penicillin and 1% streptomycin in 96 well culture plates at 37°C to a density of 8000 cells/90µl/well and the cells were harvested. A series of 3-fold serial dilutions of each test compound of Formula (I) were prepared in RPMI medium and added to the cells at final concentrations ranging from 1µM to 0.15 nM. The plates were incubated at 37°C for 96 hours.
After incubation, the cells were pelleted by centrifugation in a pre-cooled 4°C rotor at 1, 100 rpm for 10 min and the supernatant was removed by aspiration. The cell pellet was resuspended in 55µl of Lysis Buffer (0.4M HCl) and incubated on ice with periodic shaking for 30 minutes. The lysed cells were subjected to centrifugation at 4, 200 rpm for 10 min at 4°C and the supernatant containing acid-soluble proteins was collected and the remainder discarded. The acid-soluble proteins were brought to a neutral pH by the addition of 20 µl of Neutralization Buffer (1 M Sodium phosphate, dibasic (pH 12.5), 2.5 mM DTT and 1 mM PMSF) and the neutralized lysates were analyzed by ELISA.
A 65 µl aliquot of each cell lysate was added to a well of a microwell strip, the microwells were sealed using tape and incubated either at 37°C for two hours or at 4°C overnight. After incubation, the tape was removed at the microwells were washed four times using 200 µl of 1X Wash Buffer. To each washed microwell, a 100 µl aliquot of an antitrimethyl histone H3 Lys27 Detection Antibody solution was added and the microwells were incubated at 37°C for one hour. The Detection Antibody solution was removed by aspiration and the wells were washed four times each using 200 µl of 1X Wash Buffer.
A 100 µl aliquot of an HRP-linked secondary antibody was added to each well, the wells were sealed with tape and incubated at 37°C for 30 min. The HRP-linked secondary antibody solution was removed by aspiration and the wells were washed four times using 200 µl of 1X Wash Buffer. A 100 µl aliquot of a TMB substrate was added to each well, the wells were sealed with tape and incubated at 37°C for 10 min or 25°C for 30 min. The reaction was stopped by the addition of 100 µl aliquot of a STOP solution and the plate was shaken briefly. The degree of histone H3 trimethylation was determined using a spectrophotometric readout by measuring the absorbance at 450 nm and then calculating the amount of trimethylated histone H3. A = ≤100 nM; B = >100 nM - ≤500 nM; C = >500 nM and N.D. = not determined.
A general note: In an ELISA, binding on a coated surface is turned into a signal by an enzyme label.

For assay [2], the target named is purified human, His-tagged PRC2 complex (Homo sapiens, UniProt O75530+Q15910). The experiment in a line: Hot Spot HMT assay: inhibition of PRC2 enzymatic activity (transfer of tritiated methyl from SAM to core histone, filter binding). In kind it is biochemical. As to conditions: Inhibition of PRC2-mediated enzymatic activity; 10 nM PRC2 complex, 0.05 mg/ml core histone H3, 1 uM 3H-SAM, 1 hr at 30°C. In a few lines:
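Serial compound dilutions starting at 1.0 µM were pre-incubated 20 min at 30°C with 10 nM complex (His-EZH2, Flag-EED, His-SUZ12, His-AEBP2, His-RbAp48) and 0.05 mg/ml core H3. Reaction ran 1 hr at 30°C after adding 1 uM [3H]-SAM; scintillation counting followed filtration.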

In assay [3] the test system is Karpas 422 cells. Description: Karpas 422 cell viability, CTG (Cell Titre Glo) assay. In kind it is cell-based, human. To be noted: Homo sapiens; Inhibition of proliferation of Karpas 422 cells (EZH2 Y641N); viability measured Day 4, Day 7 or Day 11, time point of the tabulated values not stated. In a few lines:
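CellTiter-Glo viability IC50s taken at Day 4, Day 7 and Day 11 of continuous compound exposure (3-fold series, 10µM top, 1.5nM lowest) in RPMI/20% FBS at 37 °C. Y641N-mutant EZH2 lymphoma line seeded at 1000 cells per well; medium and compound replaced on Day 7 for Day 11 read.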

Chain of purified human, His-tagged PRC2 complex (Q15910 whole entry): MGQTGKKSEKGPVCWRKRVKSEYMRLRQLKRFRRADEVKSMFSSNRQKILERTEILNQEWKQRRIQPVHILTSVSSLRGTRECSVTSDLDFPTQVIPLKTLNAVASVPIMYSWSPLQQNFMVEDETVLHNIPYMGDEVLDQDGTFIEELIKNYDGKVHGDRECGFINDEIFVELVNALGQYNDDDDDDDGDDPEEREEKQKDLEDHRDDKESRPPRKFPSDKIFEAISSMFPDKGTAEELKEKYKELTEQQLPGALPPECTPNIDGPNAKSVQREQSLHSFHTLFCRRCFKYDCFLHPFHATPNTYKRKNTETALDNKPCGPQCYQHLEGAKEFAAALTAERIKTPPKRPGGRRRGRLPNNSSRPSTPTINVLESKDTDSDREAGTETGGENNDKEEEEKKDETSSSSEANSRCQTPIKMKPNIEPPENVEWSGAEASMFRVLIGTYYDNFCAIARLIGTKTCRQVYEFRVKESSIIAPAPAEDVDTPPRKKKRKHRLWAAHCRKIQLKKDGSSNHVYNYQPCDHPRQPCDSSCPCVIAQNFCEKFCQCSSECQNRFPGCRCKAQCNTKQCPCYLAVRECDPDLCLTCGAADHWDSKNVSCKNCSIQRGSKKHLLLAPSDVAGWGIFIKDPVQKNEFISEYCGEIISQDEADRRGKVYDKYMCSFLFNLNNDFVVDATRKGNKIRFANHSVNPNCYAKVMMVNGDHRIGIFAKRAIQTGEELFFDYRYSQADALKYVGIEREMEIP
Chain of purified human, His-tagged PRC2 complex (O75530 whole entry): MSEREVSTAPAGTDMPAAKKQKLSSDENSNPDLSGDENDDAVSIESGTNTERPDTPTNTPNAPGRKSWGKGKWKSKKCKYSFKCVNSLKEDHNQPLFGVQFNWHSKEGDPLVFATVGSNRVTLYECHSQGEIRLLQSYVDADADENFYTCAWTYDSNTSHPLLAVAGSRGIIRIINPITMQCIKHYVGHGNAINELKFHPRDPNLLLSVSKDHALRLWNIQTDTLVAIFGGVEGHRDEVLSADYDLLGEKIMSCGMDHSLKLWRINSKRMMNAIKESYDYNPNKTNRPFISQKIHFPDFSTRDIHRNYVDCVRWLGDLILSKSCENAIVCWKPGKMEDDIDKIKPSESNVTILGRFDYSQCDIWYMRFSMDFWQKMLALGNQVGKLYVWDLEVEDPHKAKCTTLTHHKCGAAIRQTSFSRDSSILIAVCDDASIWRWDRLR
Chain of purified human, His-tagged PRC2 complex (Q15022 whole entry partner): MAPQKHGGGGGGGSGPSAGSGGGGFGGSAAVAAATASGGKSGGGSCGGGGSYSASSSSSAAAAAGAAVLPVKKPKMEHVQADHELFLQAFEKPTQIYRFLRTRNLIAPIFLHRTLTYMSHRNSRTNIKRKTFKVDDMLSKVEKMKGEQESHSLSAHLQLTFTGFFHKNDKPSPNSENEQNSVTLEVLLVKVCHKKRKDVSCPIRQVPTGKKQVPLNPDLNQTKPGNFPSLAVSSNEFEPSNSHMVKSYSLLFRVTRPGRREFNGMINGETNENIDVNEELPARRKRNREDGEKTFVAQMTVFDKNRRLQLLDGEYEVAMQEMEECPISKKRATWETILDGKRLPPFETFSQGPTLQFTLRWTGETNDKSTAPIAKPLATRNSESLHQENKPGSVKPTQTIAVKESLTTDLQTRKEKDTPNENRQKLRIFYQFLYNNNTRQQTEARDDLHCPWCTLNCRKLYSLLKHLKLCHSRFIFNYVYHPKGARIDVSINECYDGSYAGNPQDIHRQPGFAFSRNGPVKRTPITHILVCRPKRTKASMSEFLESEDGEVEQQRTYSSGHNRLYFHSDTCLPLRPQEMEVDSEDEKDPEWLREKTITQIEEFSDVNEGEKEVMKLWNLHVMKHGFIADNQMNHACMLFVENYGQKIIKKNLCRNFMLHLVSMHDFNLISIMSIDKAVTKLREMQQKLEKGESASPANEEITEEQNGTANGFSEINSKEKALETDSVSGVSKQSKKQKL
Chain of purified human, His-tagged PRC2 complex (Q6ZN18 whole entry partner): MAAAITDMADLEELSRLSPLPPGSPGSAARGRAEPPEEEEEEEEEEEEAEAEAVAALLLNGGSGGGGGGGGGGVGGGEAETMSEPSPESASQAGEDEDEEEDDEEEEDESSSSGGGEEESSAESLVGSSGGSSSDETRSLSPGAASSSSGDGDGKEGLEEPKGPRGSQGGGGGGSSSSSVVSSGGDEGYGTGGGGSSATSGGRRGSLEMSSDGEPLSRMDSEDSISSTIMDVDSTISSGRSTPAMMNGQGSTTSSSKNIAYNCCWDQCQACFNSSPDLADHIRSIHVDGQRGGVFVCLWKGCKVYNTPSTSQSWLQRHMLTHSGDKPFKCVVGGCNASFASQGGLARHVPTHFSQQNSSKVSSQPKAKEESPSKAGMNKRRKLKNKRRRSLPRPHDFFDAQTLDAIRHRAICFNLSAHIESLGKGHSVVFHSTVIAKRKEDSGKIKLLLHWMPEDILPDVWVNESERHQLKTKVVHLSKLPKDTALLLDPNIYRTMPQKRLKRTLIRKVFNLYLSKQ
Chain of purified human, His-tagged PRC2 complex (Q09028 whole entry partner): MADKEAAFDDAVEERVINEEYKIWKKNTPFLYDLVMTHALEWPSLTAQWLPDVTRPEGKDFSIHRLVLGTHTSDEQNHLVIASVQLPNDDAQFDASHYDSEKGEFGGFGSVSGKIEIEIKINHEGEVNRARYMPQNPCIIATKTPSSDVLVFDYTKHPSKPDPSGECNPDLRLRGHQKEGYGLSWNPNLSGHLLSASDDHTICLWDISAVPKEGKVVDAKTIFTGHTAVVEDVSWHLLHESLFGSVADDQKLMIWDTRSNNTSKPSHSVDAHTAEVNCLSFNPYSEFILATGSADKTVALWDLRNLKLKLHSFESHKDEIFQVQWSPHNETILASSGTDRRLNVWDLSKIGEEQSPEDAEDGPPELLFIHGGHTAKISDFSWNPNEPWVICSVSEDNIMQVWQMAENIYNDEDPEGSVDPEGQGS

As for `Cn1nc(C(F)(F)F)cc1-c1cnc(NCc2c(F)ccc3c2CCO3)n2cc(C#N)nc12` [Example 111, 5-(((5-fluoro-2,3-dihydrobenzofuran-4-yl)methyl)amino)-8-(1-methyl-3-(trifluoromethyl)-1H-pyrazol-5-yl)imidazo[1,2-c]pyrimidine-2-carbonitrile], the IC50 is no more than 0.1 µM in assay [1] and less than 0.1 µM in assay [2].

As for `N#Cc1cn2c(NCc3c(F)ccc4c3CCO4)ncc(-c3ccccc3)c2n1` [Example 46, 5-(((5-fluoro-2,3-dihydrobenzofuran-4-yl)methyl)amino)-8-phenylimidazo[1,2-c]pyrimidine-2-carbonitrile], the IC50 is 0.1 to 0.5 µM in assay [1] and less than 0.1 µM in assay [2].

As to `Cc1ccc(C#N)cc1-c1cnc(NCc2c(F)ccc3c2CCO3)n2cc(C#N)nc12` [Example 177, 8-(5-cyano-2-methylphenyl)-5-(((5-fluoro-2,3-dihydrobenzofuran-4-yl)methyl)amino)imidazo[1,2-c]pyrimidine-2-carbonitrile], the IC50 in assay [1] and in assay [2] was 0.1 to 0.5 µM throughout.

On to `COc1cc(-c2cnc(NCc3c(F)ccc4c3CCO4)n3cc(C#N)nc23)c(F)cn1` [Example 123, 5-(((5-fluoro-2,3-dihydrobenzofuran-4-yl)methyl)amino)-8-(5-fluoro-2-methoxypyridin-4-yl)imidazo[1,2-c]pyrimidine-2-carbonitrile], for which the IC50 in assay [1] was no more than 0.1 µM; in assay [2], less than 0.1 µM.

With `CC(c1ccc(-c2cnc(NCc3c(F)ccc4c3CCO4)n3cc(C#N)nc23)cc1)N1CCCC1` (centres unmarked) [Example 90, 5-(((5-fluoro-2,3-dihydrobenzofuran-4-yl)methyl)amino)-8-(4-(1-(pyrrolidin-1-yl)ethyl)phenyl)imidazo[1,2-c]pyrimidine-2-carbonitrile], the concentration for half-maximal inhibition (IC50) in assay [1] was no more than 0.1 µM; in assay [2] it was less than 0.1 µM.

In the case of `Cc1cc(C(=O)N(C)C)c(F)cc1-c1cnc(NCc2c(F)ccc3c2CCO3)n2cc(C#N)nc12` [Example 43, 4-(2-cyano-5-(((5-fluoro-2,3-dihydrobenzofuran-4-yl)methyl)amlno)lmldazo[1,2-c]pyrlmldln-8-yl)-2-fluoro-N,N,5-trimethylbenzamide], the IC50 in assay [3] is no more than 0.25 µM; in assay [2], less than 0.1 µM.

As for `Cc1nc(N2CCN(C)CC2)ccc1-c1cnc(NCc2c(F)ccc3c2CCO3)n2cc(C(N)=O)nc12` [Example 138, 5-(((5-fluoro-2,3-dihydrobenzofuran-4-yl)methyl)amino)-8-(2-methyl-6-(4-methylpiperazin-1-yl)pyridin-3-yl)imidazo[1,2-c]pyrimidine-2-carboxamide], the IC50 in assay [3] was no more than 0.25 µM; in assay [2], less than 0.1 µM.

As for `Cn1nccc1-c1cnc(NCc2c(F)ccc3c2CCO3)n2cc(C#N)nc12` [Example 114, 5-(((5-fluoro-2,3-dihydrobenzofuran-4-yl)methyl)amino)-8-(1-methyl-1H-pyrazol-5-yl)imidazo[1,2-c]pyrimidine-2-carbonitrile], the IC50 in assay [3] is no more than 0.25 µM; in assay [2], less than 0.1 µM.

As to `N#Cc1cn2c(NCc3c(F)ccc4c3CCO4)ncc(-c3cccnn3)c2n1` [Example 142, 5-(((5-fluoro-2,3-dihydrobenzofuran-4-yl)methyl)amino)-8-(pyridazin-3-yl)imidazo[1,2-c]pyrimidine-2-carbonitrile], the IC50 is no more than 0.25 µM in assay [3] and less than 0.1 µM in assay [2].

In the case of `CNC(=O)c1cn2c(NCc3c(F)ccc4c3CCO4)ncc(-c3cc(C)nn3C)c2n1` [Example 20, 8-(1,3-dimethyl-1H-pyrazol-5-yl)-5-(((5-fluoro-2,3-dihydrobenzofuran-4-yl)methyl)amino)-N-methylimidazo[1,2-c]pyrimidine-2-carboxamide], the results for the IC50 in assay [3] and in assay [2] were no more than 0.25 µM and less than 0.1 µM, respectively.

Turning to `N#Cc1cn2c(NCc3c(F)ccc4c3CCO4)ncc(-c3cncc(F)c3)c2n1` [Example 97, 5-(((5-fluoro-2,3-dihydrobenzofuran-4-yl)methyl)amino)-8-(5-fluoropyridin-3-yl)imidazo[1,2-c]pyrimidine-2-carbonitrile], the IC50 was no more than 0.25 µM in assay [3] and less than 0.1 µM in assay [2].

For the compound `N#Cc1cn2c(NCc3c(F)ccc4c3CCO4)ncc(-c3cnn(C4CCCCO4)c3)c2n1` (centres unmarked) [Example 118, 5-(((5-fluoro-2,3-dihydrobenzofuran-4-yl)methyl)amino)-8-(1-(tetrahydro-2H-pyran-2-yl)-1H-pyrazol-4-yl)imidazo[1,2-c]pyrimidine-2-carbonitrile], the values for the IC50 in assay [3] and in assay [2] were greater than 0.5 µM and less than 0.1 µM, respectively.

Turning to `CN(C)Cc1ncc(-c2cnc(NCc3c(F)ccc4c3CCO4)n3cc(C#N)nc23)cc1F` [Example 40, 8-(6-((dimethylamino)methyl)-5-fluoropyridin-3-yl)-5-(((5-fluoro-2,3-dihydrobenzofuran-4-yl)methyl)amino)imidazo[1,2-c]pyrimidine-2-carbonitrile], the IC50 in assay [3] was no more than 0.25 µM; in assay [2], less than 0.1 µM.

Take `N#Cc1cn2c(NCc3c(F)ccc4c3CCO4)ncc(-c3ccc(CO)nc3)c2n1` [Example 147, 5-(((5-fluoro-2,3-dihydrobenzofuran-4-yl)methyl)amino)-8-(6-(hydroxymethyl)pyridin-3-yl)imidazo[1,2-c]pyrimidine-2-carbonitrile]: the IC50 is no more than 0.25 µM in assay [3] and 0.1 to 0.5 µM in assay [2].

Regarding `Cc1nc(N2CCN(C)CC2)ccc1-c1cnc(NCc2c(F)ccc3c2CCO3)n2cc(C#N)nc12` [Example 136, 5-(((5-fluoro-2,3-dihydrobenzofuran-4-yl)methyl)amino)-8-(2-methyl-6-(4-methylpiperazin-1-yl)pyridin-3-yl)imidazo[1,2-c]pyrimidine-2-carbonitrile], the IC50 is no more than 0.25 µM in assay [3] and 0.1 to 0.5 µM in assay [2].

For `CNS(=O)(=O)c1ccc(-c2cnc(NCc3c(F)ccc4c3CCO4)n3cc(C#N)nc23)cc1` [Example 59, 4-(2-cyano-5-(((5-fluoro-2,3-dihydrobenzofuran-4-yl)methyl)amino)imidazo[1,2-c]pyrimidin-8-yl)-N-methylbenzenesulfonamide], the IC50 in assay [3] is 0.25 to 0.5 µM; in assay [2], less than 0.1 µM.

On to `COCCn1cc(-c2cnc(NCc3c(F)ccc4c3CCO4)n3cc(C#N)nc23)cn1` [Example 117, 5-(((5-fluoro-2,3-dihydrobenzofuran-4-yl)methyl)amino)-8-(1-(2-methoxyethyl)-1H-pyrazol-4-yl)imidazo[1,2-c]pyrimidine-2-carbonitrile], for which the IC50 was no more than 0.25 µM in assay [3] and 0.1 to 0.5 µM in assay [2].

In the case of `Cc1cncc(-c2cnc(NCc3c(F)ccc4c3CCO4)n3cc(C#N)nc23)c1` [Example 96, 5-(((5-fluoro-2,3-dihydrobenzofuran-4-yl)methyl)amino)-8-(5-methylpyridin-3-yl)imidazo[1,2-c]pyrimidine-2-carbonitrile], the results for the IC50 in assay [3] and in assay [2] were 0.25 to 0.5 µM and less than 0.1 µM, respectively.

As to `Cc1c(-c2cnc(NCc3c(F)ccc4c3CCO4)n3cc(C(N)=O)nc23)cnn1C(C)C` [Example 16, 5-(((5-fluoro-2,3-dihydrobenzofuran-4-yl)methyl)amino)-8-(1-isopropyl-5-methyl-1H-pyrazol-4-yl)imidazo[1,2-c]pyrimidine-2-carboxamide], the IC50 in assay [3] is 0.25 to 0.5 µM; in assay [2] it was less than 0.1 µM.

By IC50 is commonly meant the concentration that gives 50% inhibition. Read a high IC50 as weaker potency in that assay.
